Common to all, as to format: binding
Experiment [1] deals with T1, TNKS2 ARC4 (Homo sapiens, UniProt Q9H2K2).
T1 construct: The cell was filled with TNKS2 ARC4 (488–649); His6-GST; made in house; host or cells: E. coli
T1 sequence (Q9H2K2 488-649): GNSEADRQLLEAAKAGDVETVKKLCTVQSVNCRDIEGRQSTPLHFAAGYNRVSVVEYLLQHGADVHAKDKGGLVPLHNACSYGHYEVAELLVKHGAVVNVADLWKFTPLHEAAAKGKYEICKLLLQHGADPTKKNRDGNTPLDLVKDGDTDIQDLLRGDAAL
The experiment in a line: Fluorescence polarisation (FP) competition assay with Cy5-labelled TBM peptide probe. Conditions: for FP competition, result in words: peptide titrated up to 1 mM; for pIC50: 5 nM Cy5-RSPPDGQS probe, 5 µM TNKS2 ARC4. The text has this:
Given the anticipated impairment of cell permeability by the N-terminal TBM arginine, we investigated whether the guanidine group could be substituted. To prioritise synthesis efforts, we followed an in-silico docking approach, exploring the importance of the positive charge and hydrogen bonding interactions, linker lengths/flexibility and side chain geometry (see Supplementary Materials and Methods for details). From commercially available side chain alternatives, we identified five potential candidates for R replacements: 1H-imidazole-5-pentanoic acid, 1H-imidazole-1-pentanoic acid, 7-aminoheptanoic acid, D-arginine and L-citrulline (Supplementary Fig. 1). We next synthesised 3BP2 TBM octapeptides, incorporating the five arginine substituents at position 1, followed by fluorescence polarisation (FP) assays to assess competition of the peptides with a Cy5-labelled TBM peptide probe (Supplementary Fig. 1). We used a 16-mer TBM peptide (LPHLQRSPPDGQSFRSW, W introduced to measure A280) derived from the model substrate 3BP2, a signalling adapter protein[4], as a positive control for a competitor, and a corresponding non-binding TBM peptide bearing a glycine-to-arginine substitution at position 6[4] as a negative control. […]
Fluorescence polarisation assay
Unlabelled arginine substituent peptides were titrated up to 1 mM in the presence of 5 nM of a labelled peptide probe (Cy5-RSPPDGQS, JPT Peptide Technologies) and 5 µM TNKS2 ARC4. 3BP2 16-mer peptide was used as a positive control, and the same peptide with the glycine at position 6 mutated to arginine (G6R) was used as a negative control. Plus F ProxiPlates (PerkinElmer) were used with a 2103 Envision Multilabel plate reader (PerkinElmer), fitted with 620 nm (excitation) and 688 nm (emission) filters. Filter bandwidths were 10 nm. A Nanodrop 2000 was used for measuring protein and probe concentrations by UV absorption. TNKS2 ARC4 protein was thawed from -80 ° C, and centrifuged at 13,000 […]
Two independent experiments were performed in technical duplicate. A 2´ stock solution containing TNKS2 ARC4 protein (10 µM) and fluorescently tagged probe (10 nM) in assay buffer (25 mM HEPES-NaOH pH 7.5, 100 mM NaCl, 1 mM TCEP, 0.01% CHAPS) was prepared. A 2-fold dilution series of untagged peptide in assay buffer was made (0 – 2 mM).
Protein and peptide stock solutions were mixed 1:1. Blank samples contained assay buffer only. The plate was sealed, centrifuged for 1 min at 1000 ´ g, and then incubated in the dark for 30 min before reading. Readings were taken with 50 flashes per well, and measured in millipolarisation (mP) units. Data were exported to Microsoft Excel, and analysed in GraphPad Prism 6.0. The means of technical duplicate values were calculated for both experiments, and FP values were plotted against unlabelled peptide concentration. Curves were normalised using the overall mean maximum and minimum FP values of the control 3BP2 TBM peptide. Curves were fitted using a non-linear regression, log(inhibitor) vs. response – variable slope (four parameters) model.
Multiple sequence alignments and amino acid identity mapping
Sequences of tankyrase ARCs were aligned using ClustalX (version 2.0) 4. […]
Supplementary Figure 1. Binding of TBM peptides containing arginine substituents to TNKS2 ARC4, measured in a fluorescence polarisation (FP) competition assay. Data points are means of technical duplicates from two independent experiments. […]

Experiment [2] has as its target T1, TNKS2 ARC4. Description: T2 relaxation-edited ligand-observed NMR assay. Conditions: for binding to TNKS2 ARC4 by ligand-observed NMR, in words: DSF hit validation. As for the experimental part:
We next sought close structural analogues of hit fragments 3 and 5 to gain early insights into structure-activity relationships (SAR) and binding modes of hit fragments. We initially tested the analogues using both relaxation-edited and waterLOGSY NMR assays against TNKS2 ARC4 (Table 1), followed by protein-observed NMR if binding was detected in both ligand-observed NMR experiments.
(§1) Fragments were dispensed in duplicate into a 384-well plate (250 nL, 100 mM stock in DMSO). Wells were backfilled with DMSO (2.25 μL). Tankyrase ARC protein (47.5 μL in 25 mM HEPES, pH 7.5, 100 mM NaCl, 2 mM TCEP, 10% D2O; 20 μM final protein concentration in the assay) was added to the ‘protein’ samples; buffer only (47.5 μL) was added to the ‘compound-only’ samples. Solutions were transferred to 1.7 mm NMR tubes using a Gilson liquid handling system. ^1H NMR spectra were recorded, with the DMSO and water signals dampened. A relaxation spin filter was applied at 400 ms[65]. Data were processed using Bruker Topspin 3.14. Lines were broadened with LB = 3.0, and the baseline was corrected between 6.0–10.0 ppm. The average integral for all peaks between 6.0–10.0 ppm was calculated, and the difference between compound-only and compound-plus-protein samples was compared. A reduction in signal integrals of ≥15% was classified as a hit. For competitive experiments, 3BP2 16-mer peptide (100 μM) was added, and the spectra were recorded and processed as above. The variability in signal reduction in the relaxation-edited experiment was previously determined as approximately ± 10% (Liu et al., unpublished observations).

In experiment [3] the target is T2, TNKS2 ARC5 (Homo sapiens, UniProt Q9H2K2).
T2 construct: followed by TNKS2 ARC5 (1 μL, 100 μM stock); His6-GST; made in house; host or cells: E. coli
T2 sequence (Q9H2K2 641-800): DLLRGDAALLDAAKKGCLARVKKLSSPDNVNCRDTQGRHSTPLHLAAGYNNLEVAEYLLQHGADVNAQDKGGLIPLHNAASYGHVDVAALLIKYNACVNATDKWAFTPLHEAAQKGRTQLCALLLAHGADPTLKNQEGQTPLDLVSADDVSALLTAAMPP
The experiment in a line: WaterLOGSY NMR assay. An excerpt:
(§2) 39 hits from the DSF screen were suitable for follow-up by ligand-observed NMR methods. We re-purchased fragments and performed T2 relaxation-edited (CPMG-edited) and waterLOGSY experiments for each fragment with TNKS2 ARC5. We explored saturation transfer difference (STD) NMR, also using TNKS2 ARC5, but the assay was not sensitive enough to produce a reliable binding signal, likely due to the relatively small size of a single ARC protein (data not shown). High ligand concentrations were required to achieve sufficient signal, which in turn could lead to false-positive hits due to non-specific binding.
Using the relaxation-edited assay, we tested each fragment in three independent measurements (Fig. 2C), unless we obtained two negative results (non-binding) in the first two experiments. […] As a negative NOE for the compound-only sample could indicate aggregation, we flagged these compounds as potentially problematic. We identified 14 fragments that bound to TNKS2 ARC5 by both relaxation-edited and waterLOGSY methods (0.78% hit rate). […]
Fragments were dispensed in duplicate into a 384-well plate (250 nL, 100 mM stock in DMSO). […] Solutions were transferred to 1.7 mm NMR tubes using a Gilson liquid handling system. ^1H NMR spectra were recorded, with the DMSO signal dampened. […]

Experiment [4] concerns the target T2, TNKS2 ARC5. The experiment in a line: T2 relaxation-edited ligand-observed NMR assay. Particulars: DSF hit validation; for binding to TNKS2 ARC5 by ligand-observed NMR, in words: relaxation-edited and waterLOGSY; for competition with the 3BP2 TBM peptide by relaxation-edited NMR: ARC used for competition not given.
Excerpt: as §2
Using the relaxation-edited assay, we tested each fragment in three independent measurements (Fig. 2C), unless we obtained two negative results (non-binding) in the first two experiments. […] As a negative NOE for the compound-only sample could indicate aggregation, we flagged these compounds as potentially problematic. We identified 14 fragments that bound to TNKS2 ARC5 by both relaxation-edited and waterLOGSY methods (0.78% hit rate). We next tested whether binding of these fragments occurred competitively with the 3BP2 TBM peptide, and also if they bound to TNKS2 ARC4, as competition with peptide binders at various different ARCs will be a prerequisite for an efficient substrate binding antagonist. Three fragments (1, 2, 3) bound to both TNKS2 ARC4 and ARC5 and were competitive with the TBM peptide (0.16% hit rate) (Fig. 2E). Three further fragments also bound to both ARCs, but were not TBM competitive by NMR.
as §1

pIC50: −log10 of the molar value. Where a SMILES comes first, the peptide text is derived from it. [ ]: non-standard residue; d: D form.

The text below walks through data of article PMC6911004, “Fragment-based screening identifies molecules targeting the substrate-binding ankyrin repeat domains of tankyrase” (Scientific Reports, 2019).

As usually defined, the pIC50 is −log10 of the IC50, conventionally taken in molar units. The low end stands for a large IC50, the high end for a small IC50.

For the compound 7-aminoheptanoic acid, on TNKS2 ARC4 [1], the “FP competition, result in words” value was “poor competition”.
On to `N=C(N)NCCC[C@H](N)C(=O)N[C@@H](CO)C(=O)N1CCC[C@H]1C(=O)N1CCC[C@H]1C(=O)N[C@@H](CC(=O)O)C(=O)NCC(=O)N[C@@H](CCC(N)=O)C(=O)N[C@@H](CO)C(=O)O` [8-mer RSPPDGQS TBM peptide, RSPPDGQS, reference compound] (H-RSPPDGQS-OH), for which the negative-log IC50 (pIC50) at TNKS2 ARC4 [1] is 4.47.
The same measure, in the same setting: in the case of `N=C(N)NCCC[C@@H](N)C(=O)N[C@@H](CO)C(=O)N1CCC[C@H]1C(=O)N1CCC[C@H]1C(=O)N[C@@H](CC(=O)O)C(=O)NCC(=O)N[C@@H](CCC(N)=O)C(=O)N[C@@H](CO)C(=O)O` [D-arginine] (H-[dR]SPPDGQS-OH) it was 3.76.
For the compound `O=S(=O)(Nc1cccc(O)c1)c1ccc(Cl)cc1` [compound 1], at TNKS2 ARC4 [2], the “binding to TNKS2 ARC4 by ligand-observed NMR, in words” value is “bound”. Also, on TNKS2 ARC5 [3], the waterLOGSY result is “negative NOE signal”. Moreover, on TNKS2 ARC5 [4], the “binding to TNKS2 ARC5 by ligand-observed NMR, in words” value is listed as “bound” and the “competition with the 3BP2 TBM peptide by relaxation-edited NMR” value is reported as “competitive”.
For `COc1ccc2c(OC(C)=O)coc2c1` [compound 2], the “binding to TNKS2 ARC4 by ligand-observed NMR, in words” value at TNKS2 ARC4 [2] is listed as “bound”. For the same compound, at TNKS2 ARC5 [4], the “binding to TNKS2 ARC5 by ligand-observed NMR, in words” value is “bound” and the “competition with the 3BP2 TBM peptide by relaxation-edited NMR” value is on record as “competitive”.
Turning to `NC(=O)Cc1coc2ccc3ccccc3c12` [compound 4], the “T2 relaxation-edited: competition with 3BP2 TBM peptide” value on TNKS2 ARC4 [2] (3BP2 16-mer peptide 100 μM) is reported as “competitive”.
Regarding citrulline, the “FP competition, result in words” value on TNKS2 ARC4 [1] is “poor competition”.
